In ChEMBL document CHEMBL4689842, “EUbOPEN Chemogenomics Library wave 1” (2021):

Legend:
U2OS = test: Incucyte cell viability with U2OS; format: toxicity, cell-based; conditions: human, 10 µM, compound concentration 10 uM
HEK-293T = test: Incucyte cell viability with HEK293T; format: toxicity, cell-based; conditions: human, 10 µM, compound concentration 10 uM
[1] = 0 h, replicate number 1, timepoint 0 hours
[2] = 0 h, replicate number 2, timepoint 0 hours
[3] = 12 h, replicate number 1, timepoint 12 hours
[4] = 18 h, replicate number 1, timepoint 18 hours
[5] = 24 h, replicate number 1, timepoint 24 hours
[6] = 6 h, replicate number 2, timepoint 6 hours
[7] = 6 h, replicate number 1, timepoint 6 hours

Measured: Growth Rate
Note: filed as whole numbers so only -1 and 0 and 1 occur.

O=C1N/C(=N/c2ccccc2F)S/C1=C\c1ccc(C(=O)O)cc1
0: U2OS; [1] | U2OS; 12 h, replicate number 2, timepoint 12 hours | U2OS; 18 h, replicate number 2, timepoint 18 hours | U2OS; 24 h, replicate number 2, timepoint 24 hours
1: U2OS; [2] | U2OS; [3] | U2OS; [4] | U2OS; [5] | HEK-293T; [3] | HEK-293T; [5]

Cc1cc(C)c(S(=O)(=O)N(Cc2ccc(-c3cccc(S(C)(=O)=O)c3)cc2)Cc2ccc(C(F)(F)F)o2)c(C)c1
0: U2OS; [1] | HEK-293T; [1] | HEK-293T; [7] | HEK-293T; [3] | HEK-293T; [4] | HEK-293T; [5]
1: U2OS; [2] | U2OS; [6] | U2OS; [3] | U2OS; [4] | U2OS; [5] | HEK-293T; [6]

CCCS(=O)(=O)c1nc(NC2CC2)cc(-c2ccc3c(ccn3C3CC(C)(C)NC(C)(C)C3)c2)n1
0: U2OS; [2] | U2OS; [7] | U2OS; [3] | U2OS; [4] | U2OS; [5] | HEK-293T; [2] | HEK-293T; [7] | HEK-293T; [3] | HEK-293T; [4] | HEK-293T; [5]
